# Experimental data published in PMC11120720, “Linking Variability in Phytochemical Composition with Safety Profile of Thymus carnosus Boiss. Extracts: Effect of Major Compounds and Evaluation of Markers of Oxidative Stress and Cell Death” (International Journal of Molecular Sciences, 2024).
# Where two headings read alike, the source gives them in different places.
# Tests used:
# Caco-2 cells [1] = conditions: cited from earlier work
# [2] = test system: murine melanoma cells (B16-BL6 cells); parameters: method as in PMID 15538571; conditions: cited from earlier work
# HepG2 cells [3] = assay: Annexin V-FITC/PI apoptosis/necrosis, HepG2; assay type: cell-based, human; conditions: compound 50 µM, 24 h
# Description: (§1) The cells were then equally divided for each assay.
# (§2) For the assessment of apoptotic/necrotic cell death, an Annexin V-FITC (Thermo Fisher Scientific, Waltham, MA, USA) and propidium iodide (PI; Merck, Darmstadt, Germany) double-staining assay was used to evaluate the apoptotic/necrotic cell death induced by T. carnosus extracts and by individual phytochemicals, as described previously. Briefly, after detachment and washing, the supernatant was discarded, and 200 µL of Annexin V-FITC (1:200 dilution in Annexin-binding buffer [10 mM HEPES sodium salt, 150 mM NaCl, 5 mM KCl, 5 mM MgCl2, and 1.8 mM CaCl2; pH = 7.4]) was added. Cells were incubated for 20 min (room temperature, in the dark). After incubation, 5 µL of propidium iodide (PI; 50 µg/mL) was added, the cells were incubated for 5 min on ice (in the dark), and the data were acquired.
# HepG2 cells [4] = assay: Mitochondrial membrane potential (JC-1, flow cytometry), HepG2; assay type: cell-based, human; conditions: compound 50 µM, 24 h
# Description: (§3) Flow cytometry was used to analyze the effect of T. carnosus extracts on intracellular ROS, modulation of mitochondrial membrane potential (MMP), cell cycle arrest, and apoptotic/necrotic cell death induction.
# (§4) Both one- and two-color assays were performed using a BD Accuri™ C6 cytometer (Becton Dickinson, Franklin Lakes, NJ, USA), and 10,000 gated events were collected from each sample [1]. For flow cytometry assays, cells were handled as described previously but seeded at a density 5 × 10^4 cells/mL (750 μL/well) in 12-well plates. Caco-2 and HepG2 cells were incubated for 24 h with the extracts (100 µg/mL) or individual phytochemicals (50 µM) diluted in FBS-free culture media h. After incubation, test solutions were removed; the cells were washed with PBS and detached from the plates using trypsin-EDTA. Once transferred to centrifuge tubes, the cells were centrifuged (bench micro-centrifuge; 3000 rpm; 3 min), the supernatant was discarded, and a new wash cycle was performed. The cells were then equally divided for each assay. A negative control was used in all assays consisting of nonexposed cells incubated only with culture media.
# (§5) Mitochondrial membrane potential (MMP) was evaluated using 5,5″,6,6″-tetrachloro-1,1″,3,3″-tetraethylbenzimidazolylcarbocyanineiodide (JC-1). Cells were processed as described for DCFDA but incubated with 200 µL of JC-1 (2 µM, in FBS-free DMEM) for 20 min (37 °C, in the dark).
# HepG2 cells [5] = assay: Intracellular ROS (DCFDA, flow cytometry), HepG2; assay type: cell-based, human; conditions: compound 50 µM, 24 h
# Description: as §1
# (§6) Intracellular ROS level assessment was performed as described by Silva et al., 2022 [65], using dichlorodihydrofluorescein diacetate (DCFDA). Cells obtained in the previous step were centrifuged, the supernatant discarded, and 200 µL of DCFDA (10 µM in FBS-free DMEM) was added. Cells were incubated for 45 min (37 °C, in the dark), washed to remove excess probe, and resuspended in PBS for data acquisition.
# HepG2 cells [6] = assay: Cell cycle arrest (PI, flow cytometry), HepG2; assay type: cell-based, human; conditions: compound 50 µM, 24 h
# Description: as §1
# (§7) Cell cycle arrest assessment was performed as described in [1]. Cells were processed as described above until cell detachment and centrifuged, after which the second washing step was performed with ice-cold PBS (0 °C). After centrifugation, the supernatant was discarded, and cells were fixed with 500 µL of ethanol:PBS solution (70:30, % v/v, previously cooled at −20 °C) for at least 4 h at −20 °C. After fixation, two washing cycles were performed: the first with ice-cold PBS (0 °C) and the second with room-temperature PBS, followed by the addition of 200 µL of a PBS solution containing PI (50 µg/mL), RNAse A (50 µg/mL), and Triton X-100 (0.1%). Cells were incubated for 30 min at 37 °C, and then cells were washed once with PBS to remove the staining solution. After resuspension in PBS, the data were acquired.
# [7] = test system: human prostate cancer cells; parameters: method as in PMID 29898731; conditions: 40 µM; cited from earlier work
# Caco-2 cells [8] = assay: Annexin V-FITC/PI apoptosis/necrosis, Caco-2; assay type: cell-based; conditions: compound 50 µM, 24 h
# Description: as §1, §2
# Caco-2 cells [9] = assay: Alamar Blue cell viability assay, Caco-2; assay type: cell-based, human; conditions: for IC50: Homo sapiens, Caco-2
# Description: (§8) The safety profile of T. carnosus AD and HE extracts was evaluated in Caco-2 and HepG2 cells using an Alamar Blue® (Invitrogen; Alfagene, Lisboa, Portugal) assay. An initial screening was performed for all extracts at concentrations ranging between 100 and 1000 µg/mL. Due to the higher toxicity of the HE extracts, which was previously described for various extracts of Thymus species using the same extraction methods (e.g., T. mastichina and Thymus zygis), a different set of concentrations was used for the HE extracts (between 100 and 300 µg/mL for Caco-2 cells and 50 and 150 µg/mL for HepG2 cells). Figure 1 presents the data related to the cell viability assays in Caco-2 (panels A–E) and HepG2 cells (panels F–J) exposed to T. carnosus extracts, as indicated.
# (§9) The safety profile of T. carnosus extracts was assessed in Caco-2 and HepG2 cells. Caco-2 (human colon adenocarcinoma cell line) were obtained from CLS (Cell Lines Service, Eppelheim, Germany), and HepG2 (human hepatocellular carcinoma cell line) were obtained from ATCC (American Type Culture Collection, Manassas, VA, USA).
# (§10) Cell culture maintenance, handling, subculturing, and seeding were performed as described by Silva et al., 2020 [5], and cell viability was assessed using an Alamar Blue® assay, as described by Andreani et al., 2014 [64]. Concentrations ranged between 100 and 1000 µg/mL for AD extracts in both cell lines and 100 to 300 µg/mL or 50 to 150 µg/mL for HE extracts in Caco-2 and HepG2 cells, respectively. The effect of individual compounds on cell viability was assessed for concentrations ranging from 50 to 300 µM. All test solutions were prepared by diluting the samples in FBS-free culture media from the stock solutions described in Section 3.2, just prior to being used.
# (§11) The results are presented as mean ± SD of at least three independent assays. The calculation of IC50 values was performed as described by Silva et al., 2020 [5]. Data analysis, graphical design, and statistical analysis were performed using Microsoft Office Excel (Professional Plus 2019; Microsoft Corporation, Washington, DC, USA) and GraphPad Prism (Version 8; GraphPad Software Inc., San Diego, CA, USA). Flow cytometry data analysis was performed using BD Accuri™ C6 Software, version 1.0.264.21 (Becton Dickinson, San Diego, CA, USA).
# [10] = Alamar Blue cell viability assay, Caco-2; assay type: cell-based, human; conditions: human, Caco-2
# Description: as §8, §9, §10, §11
# Caco-2 cells [11] = assay: Cell cycle arrest (PI, flow cytometry), Caco-2; assay type: cell-based; conditions: compound 50 µM, 24 h
# Description: as §1, §7
# [12] = Alamar Blue cell viability assay, HepG2; assay type: cell-based, human; conditions: human
# Description: as §8, §9, §10, §11
# HepG2 cells [13] = assay: Alamar Blue cell viability assay, HepG2; assay type: cell-based, human; conditions: for IC50: Homo sapiens, HepG2
# Description: as §8, §9, §10, §11
# HepG2 cells [14] = conditions: cited from earlier work
# Caco-2 cells [15] = assay: Intracellular ROS (DCFDA, flow cytometry), Caco-2; assay type: cell-based; conditions: compound 50 µM, 24 h
# Description: as §1, §6
# [16] = test system: HCT-116 human colorectal carcinoma cells; conditions: cited from earlier work
# [17] = test system: colorectal cancer cell line CT26; parameters: method as in PMID 29459827; conditions: cited from earlier work
# [18] = test system: HONE-2 nasopharyngeal carcinoma cells; parameters: method as in PMID 31981746; conditions: 50 µM; cited from earlier work
# [19] = test system: human prostate carcinoma (DU 145) cells; conditions: cited from earlier work
# [20] = test system: human lung cancer (A549) cells; conditions: cited from earlier work
# [21] = test system: NPC-39 nasopharyngeal carcinoma cells; parameters: method as in PMID 31981746; conditions: 50 µM; cited from earlier work
# [22] = test system: human lung adenocarcinoma (H1975) cells; conditions: cited from earlier work
# [23] = test system: human small cell lung cancer cells (SCLCs); parameters: method as in doi:10.4314/tjpr.v14i8.11; conditions: 50 and 100 µM; cited from earlier work
# Caco-2 cells [24] = conditions: compound 50 µM, 24 h
# Description: as §3, §4, §5
# HeLa cells = conditions: cited from earlier work
# [25] = test system: DLD-1, Dukes-type C colorectal adenocarcinoma; conditions: cited from earlier work
# [26] = 24 h exposure, read-out: IC50 (µM) - Caco-2 cells: 24 h
# [27] = 48 h exposure, read-out: IC50 (µM) - Caco-2 cells: 48 h
# [28] = 24 h exposure, read-out: IC50 (µM) - HepG2 cells: 24 h
# [29] = 48 h exposure, read-out: IC50 (µM) - HepG2 cells: 48 h
structure (smiles),measurement,setting,value
"O=c1c(O)c(-c2ccc(O)c(O)c2)oc2cc(O)cc(O)c12 [Quercetin, quercetin]","cell viability, Caco-2","Caco-2 cells [1]; 50 µM, 48 h",75–80%
same,effect on Caco-2 cell viability,"Caco-2 cells [1]; 100 µM, 24 h",no changes in cell viability
same,"MMP modulation, B16-BL6",[2],loss of MMP
same,% of healthy HepG2 cells,HepG2 cells [3],~ 76%
same,"cell death induction, HepG2",HepG2 cells [3],shift in the cell population to both early and late apoptosis
same,"MMP modulation, HepG2",HepG2 cells [4],did not induce variations in the MMP
same,"change in intracellular ROS, HepG2",HepG2 cells [5],significant increase in ROS
same,"cell cycle effect, HepG2",HepG2 cells [6],cell cycle arrest was observed in the G0/G1 phase
same,"MMP modulation, prostate cancer cells",[7],loss of MMP
same,% of healthy Caco-2 cells,Caco-2 cells [8],~ 86%
same,"cell death induction, Caco-2",Caco-2 cells [8],shift in the cell distribution into late apoptosis
same,concentrations giving significant decrease in Caco-2 cell viability,Caco-2 cells [9]; 24 h,≥ 75 µM
same,IC50,Caco-2 cells [9]; [26],> 300 µM
same,IC50,Caco-2 cells [9]; [27],109 µM
same,"viability at 48 h, 50 µM","[10]; 50 µM, 48 h, Figure 2E",77.6%
same,viability at 48 h,"[10]; 50-100 µM, 48 h, read-out: cell viability, Caco-2",≥ 68%
same,viability at 24 h,"[10]; concentrations up to 200 µM, 24 h, Figure 2E",~90%
same,"cell cycle effect, Caco-2",Caco-2 cells [11],cell cycle arrest in the S and G2/M phases
same,viability at 48 h,"[12]; HepG2 cells, 50-100 µM, 48 h",≤ 20%
same,concentrations reducing HepG2 cell viability,"HepG2 cells [13]; 50 µM = lowest concentration tested, Figure 2M",≥ 50 µM
same,IC50,HepG2 cells [13]; [28],141 µM
same,IC50,HepG2 cells [13]; [29],10.1 µM
same,concentrations reducing HepG2 cell viability,HepG2 cells [14]; 24 h of exposure,≥ 33 µM
O=C(/C=C/c1ccc(O)c(O)c1)O[C@H](Cc1ccc(O)c(O)c1)C(=O)O [Rosmarinic acid],concentrations that did not reduce Caco-2 cell viability,Caco-2 cells [1]; Caco-2,≤ 90 µM
same,"cell death induction, HepG2",HepG2 cells [3],necrosis in HepG2 cells
same,"MMP modulation, HepG2",HepG2 cells [4],slight decrease in MMP
same,"change in intracellular ROS, HepG2",HepG2 cells [5],significant (p < 0.05) increase in intracellular HepG2 ROS levels
same,"cell cycle effect, HepG2",HepG2 cells [6],induced cell cycle arrest in both cell lines but in different phases
same,"cell death induction, Caco-2",Caco-2 cells [8],significant increase in both late apoptosis and necrosis
same,IC50,Caco-2 cells [9]; [26],> 300 µM
same,IC50,Caco-2 cells [9]; [27],> 300 µM
same,"viability at 24 h, 300 µM",[10],87.8%
same,"viability at 48 h, 300 µM",[10],72.6%
same,"change in intracellular ROS, Caco-2",Caco-2 cells [15],neither RA nor eriodictyol induced ROS increases
same,"cell cycle effect, Caco-2",Caco-2 cells [11],cell cycle arrest in G0/G1
same,"viability at 24 h, 300 µM",[12],65.2%
same,IC50,HepG2 cells [13]; [28],> 300 µM
same,IC50,HepG2 cells [13]; [29],> 300 µM
same,"cell cycle effect, HCT-116",[16],cell cycle arrest in G0/G1
same,concentrations giving significant reduction in HepG2 cell viability,HepG2 cells [14],≥ 34.69 µM
same,IC50,"HepG2 cells [14]; read-out: IC50 (48 h), HepG2 cells, 48 h",91 µM
same,"cell cycle effect, CT26",[17],cell cycle arrest in G0/G1
"O=C(/C=C/c1ccc(O)c(O)c1/C=C/c1ccc(O)c(O)c1)O[C@H](Cc1ccc(O)c(O)c1)C(=O)O [Salvianolic acid A, salvianolic acid A]","effect on cell viability, HONE-2",[18],no reduction in cell viability
same,IC50,[19],≤ 30 µM
same,IC50,[20],≤ 30 µM
same,"effect on cell viability, NPC-39",[21],no reduction in cell viability
same,IC50,[22],≤ 30 µM
same,"MMP modulation, SCLC cells",[23],loss of MMP
same,"MMP modulation, Caco-2",Caco-2 cells [24],significant loss of MMP
same,IC50,HeLa cells,≤ 30 µM
same,IC50,Caco-2 cells [9]; [26],> 300 µM
same,IC50,Caco-2 cells [9]; [27],> 300 µM
same,"viability at 48 h, 300 µM",[10],54.4%
same,"concentrations with no or low cytotoxicity, DLD-1",[25],up to 50 µM
same,IC50,HepG2 cells [13]; [28],> 300 µM
same,IC50,HepG2 cells [13]; [29],> 300 µM
same,"concentrations with no or low cytotoxicity, HCT-116",[16],up to 50 µM
